In patent US8853424B2 (Japan Science and Technology Agency, priority 2008, dated 2014):
Like-named read-outs stand apart in the source and are kept apart here.

How the values were obtained:
[1] = tested on: transglutaminase (TGase); experiment: Measurement of TG (TGase inhibitory activity, monodansyl cadaverine / N,N-dimethylcasein fluorescence, FDSS 3000); assay type: biochemical
How it was run: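 Compound (1 μL of 10 mM stock) added to 0.1 mL reaction: 100 mM HEPES-NaOH pH 7.5, 1 mM CaCl2, 20 μM monodansyl cadaverine, 0.05 mg/mL N,N-dimethylcasein, 5 μg/mL TGase. Rate of fluorescence change at 340 nm measured; DMSO control set to 100; TG50 is the concentration halving activity.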

[2] = tested on: SOC (store operated calcium channel); experiment: Measurement of SOC IC50 (thapsigargin store depletion, calcium re-addition, CHO cells); assay type: cell-based; conditions: read-out: SOC IC50
Description: The SOC (store operated calcium channel)-suppressive action can be measured by the method described in the Example and using, for example, FDSS 3000.
CHO cell culture medium was replaced with a BSS solution which is an extracellular fluidfree of calcium, the compound of the present invention was added 1 min later, and 1 μM thapsigargin was allowed to act thereon 2 min later to deplete intracellular calcium store. […]

[3] = tested on: Truncated N-terminal huntington 150 Q-EGFP-Neuron 2a cells; experiment: Measurement of x-Fold (polyglutamine aggregation inhibitory activity); assay type: cell-based
Description: In the present invention, the polyglutamine aggregation inhibitory activity (x-Fold) can be measured, for example, by the method described in the Example.
The number of the aggregated cells, and the total number of cells were counted by Array Scan V T1 (manufactured by Cellomics, Pittuburg, USA), and the ratio of the aggregated cells to the total number of cells was determined (x-Fold). […]

[4] = TGase activity with compound (10 mM, 1 μL in 0.1 ml enzyme reaction solution), DMSO control taken as 100
[5] = CHO cells, 1 μM thapsigargin, 2 mM calcium chloride
[6] = ratio of aggregated cells to total number of cells, compound 20 μM, 20 hr, almost 1 without compound, smaller = stronger inhibition
[7] = TGase inhibitory activity value, Table 1
[8] = Cricetulus griseus, CHO, CHO cells, 1 μM thapsigargin, 2 mM calcium chloride
[9] = Cricetulus griseus, CHO, Table 1
[10] = polyglutamine aggregation inhibitory activity, Table 1
[11] = TGase inhibitory activity measurement, unit not given
[12] = polyglutamine aggregation, Truncated N-terminal huntington 150 Q-EGFP-Neuron 2a cells

Row | Compound | TGase activity remaining (% of DMSO control = 100) [1, 4] | IC50 [2, 5] | x-Fold [3, 6] | TGase activity remaining (% of DMSO control = 100) [1, 7] | IC50 [2, 8] | IC50 [2, 9] | x-Fold [3, 10] | TGase activity remaining (% of DMSO control = 100) ([1]; TGase inhibitory activity value, Table 1, listed as 7085) | x-Fold ([3]; polyglutamine aggregation inhibitory activity, Table 1, listed as 7085) | TGase activity remaining (% of DMSO control = 100) [1, 11] | x-Fold [3, 12] | IC50 ([2]; Cricetulus griseus, CHO, CHO cells, thapsigargin store depletion)
1 | NC(=O)CC(N)C(=O)OB(c1ccc(COCc2ccc(B(OC(=O)C(N)CC(N)=O)c3ccc(C(F)(F)F)cc3)cc2)cc1)c1ccc(C(F)(F)F)cc1 (stereo not drawn) [Example 185, bis(4,4′-(p-trifluoromethylphenyl-asparagineboryl)benzyl)ether] | 130 | > 20000 nM | 0.94 | – | – | – | – | – | – | – | – | –
2 | O=C(OB(c1ccccc1)c1ccccc1)C1CCCN1 (stereo not drawn) [Example 277, diphenyl(prolinate-O,N)borane] | 105 | – | 0.98 | 105 | 300 nM | 300 nM | 0.98 | – | – | – | – | –
3 | CCC(C)B(OCCN)c1ccccc1 (stereo not drawn) [Example 110, aminoethyl secondary-butyl phenylborinate] | 115 | – | 1.02 | 115 | > 10000 nM | > 10000 nM | 1.02 | – | – | – | – | –
4 | NC(CCC(=O)O)C(=O)OB(c1ccccc1)c1ccc(Oc2ccc(B(OC(=O)C(N)CCC(=O)O)c3ccc(CO)cc3)cc2)cc1 (stereo not drawn) [Example 275, (4-(phenyl-glutamic acid boryl)phenyl)-(4′-(hydroxymethylphenyl-glutamic acid boryl)phenyl)ether] | 117 | – | 0.67 | – | 300 nM | – | – | – | – | – | – | –
5 | Cc1ccc(B(OC(=O)C(N)CN)c2ccc(C)c(Cl)c2)cc1Cl (stereo not drawn) [Example 71, di(3-chloro-4-methylphenyl)(2,3-diaminopropionate-O,N)borane] | 51 | – | 0.97 | 51 | 1000 nM | 1000 nM | 0.97 | – | – | – | – | –
6 | NC(=O)CCC(N)C(=O)OB(c1ccccc1)c1ccc(Oc2ccc(B(OC(=O)C(N)CCC(N)=O)c3ccc(CO)cc3)cc2)cc1 (stereo not drawn) [Example 394, (4-(phenyl-glutamineboryl)phenyl)(4′-(hydroxymethylphenyl-glutamineboryl)phenyl)ether] | 41 | – | 0.44 | 41 | 1500 nM | 1500 nM | 0.44 | – | – | – | – | –
7 | OB(c1ccccc1)c1ccccc1COCc1ccccc1B(O)c1ccccc1 [Example 486, bis(2,2′-(phenylhydroxyboryl)benzyl)ether] | 52 | 500 nM | 1.04 | – | – | – | – | – | – | – | – | –
8 | NC(=O)CCC(N)C(=O)OB(c1ccccc1)c1ccc(Oc2ccc(B(OC(=O)C(N)CCC(N)=O)c3ccccc3)cc2)cc1 (stereo not drawn) [Example 388, bis(4,4′-(phenyl-glutamineboryl)phenyl)ether] | 41 | 500 nM | 0.67 | – | – | – | – | 41 | 0.67 | – | – | –
9 | O=C1O[B-](c2ccccc2)(c2ccccc2)[NH2+]C1Cc1ccccc1 (stereo not drawn) [Example 259, diphenyl(phenylalaninate-O,N)borane] | 67 | – | 0.97 | 67 | 2500 nM | 2500 nM | 0.97 | – | – | – | – | –
10 | NCCCCC(N)C(=O)OB(c1ccccc1)c1ccccc1 (stereo not drawn) [Example 271, diphenyl(lysinate-O,N)borane] | 109 | – | 1.07 | 109 | 500 nM | 500 nM | 1.07 | – | – | – | – | –
11 | N=C(N)NCCCC(N)C(=O)OB(c1ccccc1)c1ccccc1 (stereo not drawn) [Example 122, diphenyl(argininate-O,N)borane] | 93 | – | 0.98 | 93 | 7000 nM | 7000 nM | 0.98 | – | – | – | – | –
12 | NCCOB(c1ccccc1)c1cccc(COCc2cccc(Oc3ccccc3)c2)c1 [Example 278, (3-phenoxybenzyl)-(3′-(phenyl-2-aminoethoxyboryl)benzyl)ether] | 2 | – | 1.08 | 2 | 300 nM | 300 nM | 1.08 | – | – | – | – | –
13 | OB(c1ccccc1)c1ccc(COCc2ccccc2B(O)c2ccccc2)cc1 [Example 331, (2-(phenylhydroxyboryl)benzyl)(4-(phenylhydroxyboryl)benzyl)ether] | 101 | – | 0.98 | 101 | 1000 nM | 1000 nM | 0.98 | – | – | – | – | –
14 | Cc1ccc(B(O)c2ccc(COCc3ccc(B(O)c4ccc(C)cc4)cc3)cc2)cc1 [Example 361, bis(4-(4-methylphenylhydroxyboryl)benzyl)ether] | 100 | – | 0.88 | 100 | > 20000 nM | > 20000 nM | 0.88 | – | – | – | – | –
15 | NCCOB(c1ccccc1)c1cccc(COCc2ccccc2B(OCCN)c2ccccc2)c1 [Example 334] | 21 | – | 1.02 | 21 | 300 nM | 300 nM | 1.02 | – | – | – | – | –
16 | NCCCC(N)C(=O)OB(c1ccccc1)c1cccc(COCc2cccc(B(OC(=O)C(N)CCCN)c3ccccc3)c2)c1 (stereo not drawn) [Example 476, bis(3,3′-(phenyl-ornithineboryl)benzyl)ether] | 103 | 1500 nM | 0.95 | – | – | – | – | – | – | 103 | 0.95 | –
17 | bis(3,3′-(phenyl-2-benzyl-2-amino-ethoxyboryl)benzyl)ether [Example 481] | 48 | 1500 nM | 0.80 | – | – | – | – | – | – | 48 | 0.80 | –
18 | NCCOB(c1ccccc1)c1ccc(B(OCCN)c2ccccc2)cc1 [Example 118, 1,4-bis(phenyl-2-aminoethoxyboryl)benzene] | 93 | – | 0.97 | 93 | 2000 nM | 2000 nM | 0.97 | – | – | – | – | –
19 | OB(c1ccccc1)c1ccccc1 [Example 488, diphenylborinic acid] | 108 | – | 1.01 | – | 4000 nM | – | 0.83 | – | – | 108 | 1.01 | 4000 nM
20 | NC(COB(c1ccccc1)c1cccc(COCc2cccc(B(OCC(N)c3ccccc3)c3ccccc3)c2)c1)c1ccccc1 (stereo not drawn) [Example 462, bis(3,3′-(phenyl-2-phenyl-2-aminoethoxyboryl)benzyl)ether] | 31 | 300 nM | 0.92 | – | – | – | – | – | – | 31 | 0.92 | –
